# Measured values reported in PubChem BioAssay (NCI).
#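 Step 1: Grow cells in 96-well plates. Step 2: Expose to compound for 48 hours at 5 concentrations. Step 3: Interpolate endpoints linearly; if unreached, use highest concentration. Definition used: TGI = concentration required for complete inhibition of growth.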
# Columns and labels:
# Assay in all cases: NCI anticancer screen, dose series, 48 h
# UACC-257 melanoma = test system: UACC-257 melanoma
# SNB-78 CNS = test system: SNB-78 CNS
# OVCAR-4 ovarian = test system: OVCAR-4 ovarian
# OVCAR-5 ovarian = test system: OVCAR-5 ovarian
# SR leukemia = test system: SR leukemia
# K-562 leukemia = test system: K-562 leukemia
# HCC-2998 colon = test system: HCC-2998 colon
# TK-10 renal = test system: TK-10 renal
# RXF-631 renal = test system: RXF-631 renal
# HT29 colon = test system: HT29 colon
# IGROV1 ovarian = test system: IGROV1 ovarian
# BT-549 breast = test system: BT-549 breast
# KM12 colon = test system: KM12 colon
# LXFL 529 NSCLC = test system: LXFL 529 NSCLC
# HCT-15 colon = test system: HCT-15 colon
# COLO 205 colon = test system: COLO 205 colon
# HS 578T breast = test system: HS 578T breast
# HCT-116 colon = test system: HCT-116 colon
# DU-145 prostate = test system: DU-145 prostate
# NCI/ADR-RES ovarian = test system: NCI/ADR-RES ovarian
# T-47D breast = test system: T-47D breast
# CAKI-1 renal = test system: CAKI-1 renal
# SF-295 CNS = test system: SF-295 CNS
# ACHN renal = test system: ACHN renal
# LOX IMVI melanoma = test system: LOX IMVI melanoma
# UACC-62 melanoma = test system: UACC-62 melanoma
# 786-0 renal = test system: 786-0 renal
# HOP-18 NSCLC = test system: HOP-18 NSCLC
# NCI-H460 lung = test system: NCI-H460 lung
# U251 CNS = test system: U251 CNS
# SK-MEL-28 melanoma = test system: SK-MEL-28 melanoma
# UO-31 renal = test system: UO-31 renal
# SNB-75 CNS = test system: SNB-75 CNS
# SNB-19 CNS = test system: SNB-19 CNS
# M19-MEL melanoma = test system: M19-MEL melanoma
# OVCAR-8 ovarian = test system: OVCAR-8 ovarian
# HOP-62 NSCLC = test system: HOP-62 NSCLC
# SK-MEL-5 melanoma = test system: SK-MEL-5 melanoma
# RXF 393 renal = test system: RXF 393 renal
# SK-MEL-2 melanoma = test system: SK-MEL-2 melanoma
# DMS 114 small cell lung = test system: DMS 114 small cell lung
# M14 melanoma = test system: M14 melanoma
# HOP-92 NSCLC = test system: HOP-92 NSCLC
# MDA-MB-231 breast = test system: MDA-MB-231 breast
# SN12C renal = test system: SN12C renal
# SK-OV-3 ovarian = test system: SK-OV-3 ovarian
# MOLT-4 leukemia = test system: MOLT-4 leukemia
# NCI-H522 lung = test system: NCI-H522 lung
# MDA-N = test system: MDA-N
# DLD-1 colon = test system: DLD-1 colon
# RPMI-8226 leukemia = test system: RPMI-8226 leukemia
# OVCAR-3 ovarian = test system: OVCAR-3 ovarian
# SF-268 CNS = test system: SF-268 CNS
# EKVX NSCLC = test system: EKVX NSCLC
# KM20L2 colon = test system: KM20L2 colon
# A549 NSCLC = test system: A549 NSCLC
# PC-3 prostate = test system: PC-3 prostate
# CCRF-CEM leukemia = test system: CCRF-CEM leukemia
# SW-620 colon = test system: SW-620 colon
# MDA-MB-435 = test system: MDA-MB-435
# NCI-H226 lung = test system: NCI-H226 lung
# A498 renal = test system: A498 renal
# MCF7 breast = test system: MCF7 breast
# MALME-3M melanoma = test system: MALME-3M melanoma
# HL-60(TB) leukemia = test system: HL-60(TB) leukemia
# NCI-H23 lung = test system: NCI-H23 lung
# SF-539 CNS = test system: SF-539 CNS
# DMS 273 small cell lung = test system: DMS 273 small cell lung
# XF 498 CNS = test system: XF 498 CNS
compound,measurement,setting,value
O=c1c2ccccc2n2cnc3ccc(NCCNCCO)c1c32,TGI,UACC-257 melanoma,13.2 µM
same,TGI,SNB-78 CNS,15.5 µM
same,TGI,OVCAR-4 ovarian,4.57 µM
same,TGI,OVCAR-5 ovarian,5.84 µM
same,TGI,SR leukemia,> 33.6 µM
same,TGI,K-562 leukemia,> 51.1 µM
same,TGI,HCC-2998 colon,11.3 µM
same,TGI,TK-10 renal,15.7 µM
same,TGI,RXF-631 renal,8.68 µM
same,TGI,HT29 colon,6.84 µM
same,TGI,IGROV1 ovarian,9.59 µM
same,TGI,BT-549 breast,16.6 µM
same,TGI,KM12 colon,5.72 µM
same,TGI,LXFL 529 NSCLC,16.4 µM
same,TGI,HCT-15 colon,13.7 µM
same,TGI,COLO 205 colon,5.09 µM
same,TGI,HS 578T breast,6.26 µM
same,TGI,HCT-116 colon,8.29 µM
same,TGI,DU-145 prostate,3.31 µM
same,TGI,NCI/ADR-RES ovarian,16.5 µM
same,TGI,T-47D breast,22.2 µM
same,TGI,CAKI-1 renal,9.46 µM
same,TGI,SF-295 CNS,9.2 µM
same,TGI,ACHN renal,7.42 µM
same,TGI,LOX IMVI melanoma,2.8 µM
same,TGI,UACC-62 melanoma,7.27 µM
same,TGI,786-0 renal,10.4 µM
same,TGI,HOP-18 NSCLC,26.8 µM
same,TGI,NCI-H460 lung,7.58 µM
same,TGI,U251 CNS,13.6 µM
same,TGI,SK-MEL-28 melanoma,11 µM
same,TGI,UO-31 renal,11.6 µM
same,TGI,SNB-75 CNS,9.51 µM
same,TGI,SNB-19 CNS,22.6 µM
same,TGI,M19-MEL melanoma,12.9 µM
same,TGI,OVCAR-8 ovarian,5.02 µM
same,TGI,HOP-62 NSCLC,10.9 µM
same,TGI,SK-MEL-5 melanoma,5.4 µM
same,TGI,RXF 393 renal,4.65 µM
same,TGI,SK-MEL-2 melanoma,8.8 µM
same,TGI,DMS 114 small cell lung,12.2 µM
same,TGI,M14 melanoma,8.07 µM
same,TGI,HOP-92 NSCLC,13.1 µM
same,TGI,MDA-MB-231 breast,6.58 µM
same,TGI,SN12C renal,17 µM
same,TGI,SK-OV-3 ovarian,19.6 µM
same,TGI,MOLT-4 leukemia,10.3 µM
same,TGI,NCI-H522 lung,6.2 µM
same,TGI,MDA-N,9.61 µM
same,TGI,DLD-1 colon,16.9 µM
same,TGI,RPMI-8226 leukemia,17 µM
same,TGI,OVCAR-3 ovarian,9.82 µM
same,TGI,SF-268 CNS,8.01 µM
same,TGI,EKVX NSCLC,8.49 µM
same,TGI,KM20L2 colon,12.1 µM
same,TGI,A549 NSCLC,3.66 µM
same,TGI,PC-3 prostate,6.15 µM
same,TGI,CCRF-CEM leukemia,> 47.3 µM
same,TGI,SW-620 colon,5.11 µM
same,TGI,MDA-MB-435,6.68 µM
same,TGI,NCI-H226 lung,6.5 µM
same,TGI,A498 renal,6.96 µM
same,TGI,MCF7 breast,9.62 µM
same,TGI,MALME-3M melanoma,9.3 µM
same,TGI,HL-60(TB) leukemia,18.5 µM
same,TGI,NCI-H23 lung,8.12 µM
same,TGI,SF-539 CNS,15.8 µM
COC(=O)c1cc2ccccc2c2nc3ccccc3c(Cl)c12,TGI,UACC-257 melanoma,> 100 µM
same,TGI,OVCAR-4 ovarian,> 100 µM
same,TGI,SR leukemia,> 100 µM
same,TGI,K-562 leukemia,> 100 µM
same,TGI,HCC-2998 colon,> 100 µM
same,TGI,TK-10 renal,> 100 µM
same,TGI,RXF-631 renal,> 100 µM
same,TGI,HT29 colon,> 100 µM
same,TGI,IGROV1 ovarian,> 100 µM
same,TGI,KM12 colon,> 100 µM
same,TGI,LXFL 529 NSCLC,> 100 µM
same,TGI,HCT-15 colon,> 100 µM
same,TGI,COLO 205 colon,> 100 µM
same,TGI,HCT-116 colon,> 100 µM
same,TGI,CAKI-1 renal,> 100 µM
same,TGI,SF-295 CNS,> 100 µM
same,TGI,ACHN renal,> 100 µM
same,TGI,LOX IMVI melanoma,> 100 µM
same,TGI,UACC-62 melanoma,> 100 µM
same,TGI,786-0 renal,> 100 µM
same,TGI,U251 CNS,> 100 µM
same,TGI,SK-MEL-28 melanoma,> 100 µM
same,TGI,SNB-75 CNS,> 100 µM
same,TGI,SNB-19 CNS,> 100 µM
same,TGI,M19-MEL melanoma,> 100 µM
same,TGI,OVCAR-8 ovarian,> 100 µM
same,TGI,HOP-62 NSCLC,> 100 µM
same,TGI,DMS 273 small cell lung,> 100 µM
same,TGI,SK-MEL-5 melanoma,> 100 µM
same,TGI,RXF 393 renal,> 100 µM
same,TGI,SK-MEL-2 melanoma,> 100 µM
same,TGI,DMS 114 small cell lung,> 100 µM
same,TGI,M14 melanoma,> 100 µM
same,TGI,HOP-92 NSCLC,> 100 µM
same,TGI,SN12C renal,> 100 µM
same,TGI,MOLT-4 leukemia,> 100 µM
same,TGI,NCI-H522 lung,> 100 µM
same,TGI,DLD-1 colon,> 100 µM
same,TGI,RPMI-8226 leukemia,> 100 µM
same,TGI,OVCAR-3 ovarian,> 100 µM
same,TGI,SF-268 CNS,> 100 µM
same,TGI,XF 498 CNS,> 100 µM
same,TGI,EKVX NSCLC,> 100 µM
same,TGI,KM20L2 colon,29 µM
same,TGI,A549 NSCLC,> 100 µM
same,TGI,CCRF-CEM leukemia,> 100 µM
same,TGI,SW-620 colon,> 100 µM
same,TGI,A498 renal,> 100 µM
same,TGI,MALME-3M melanoma,> 100 µM
same,TGI,HL-60(TB) leukemia,> 100 µM
same,TGI,NCI-H23 lung,> 100 µM
same,TGI,SF-539 CNS,> 100 µM
